Assays:
Type in all cases: biochemical
[1] = target: T1, CANP (μCANP, Calpain I) (Homo sapiens, UniProt P07384); experiment: Inhibitory Activity against CANP; conditions: alkali-denatured casein, pH 7.5, preincubated 30° C. 5 min, incubation 20 min, read-out: concentration of the test drug required for 50% inhibition (IC50)
T1 construct: purchased Nacalai Tesque Inc
T1 sequence (P07384 1-714): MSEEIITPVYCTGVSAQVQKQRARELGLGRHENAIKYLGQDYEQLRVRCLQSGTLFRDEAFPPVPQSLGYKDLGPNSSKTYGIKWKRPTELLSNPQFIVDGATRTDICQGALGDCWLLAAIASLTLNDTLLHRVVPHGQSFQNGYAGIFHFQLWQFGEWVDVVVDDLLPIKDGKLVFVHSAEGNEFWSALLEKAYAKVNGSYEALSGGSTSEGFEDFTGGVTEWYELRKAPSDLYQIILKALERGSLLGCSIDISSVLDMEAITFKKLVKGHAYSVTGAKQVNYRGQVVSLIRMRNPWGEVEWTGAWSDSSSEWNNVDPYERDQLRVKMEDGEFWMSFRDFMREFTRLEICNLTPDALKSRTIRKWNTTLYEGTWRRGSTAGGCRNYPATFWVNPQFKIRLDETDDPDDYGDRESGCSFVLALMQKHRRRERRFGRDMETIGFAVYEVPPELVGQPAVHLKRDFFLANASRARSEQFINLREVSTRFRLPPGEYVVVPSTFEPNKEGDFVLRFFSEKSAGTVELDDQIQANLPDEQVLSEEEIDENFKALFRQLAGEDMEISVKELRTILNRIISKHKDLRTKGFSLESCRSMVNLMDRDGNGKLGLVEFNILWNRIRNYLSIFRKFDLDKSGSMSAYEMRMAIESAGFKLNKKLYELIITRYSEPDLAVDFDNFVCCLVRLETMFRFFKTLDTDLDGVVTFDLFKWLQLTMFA
T1 sequence (P04632 1-268 partner): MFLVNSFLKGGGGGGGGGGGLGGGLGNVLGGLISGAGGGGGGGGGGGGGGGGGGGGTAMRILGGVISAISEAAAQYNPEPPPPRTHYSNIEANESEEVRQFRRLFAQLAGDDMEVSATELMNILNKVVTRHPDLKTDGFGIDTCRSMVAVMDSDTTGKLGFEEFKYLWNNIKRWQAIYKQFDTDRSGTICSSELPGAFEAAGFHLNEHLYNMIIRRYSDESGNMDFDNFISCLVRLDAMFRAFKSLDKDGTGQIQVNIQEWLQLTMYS
Protocol: Test example 1 [Inhibitory Activity against CANP]
The activity was measured according to the method of S. Ishiura et al [J. Biochem., vol. 84, page 225 (1978)].
Each of 0.45 ml of the reaction solutions containing 25 mM 2-mercaptoethanol, 5 mM calcium chloride, 0.1 M sodium glycerophosphate-HCl (pH 7.5), 0.24% alkali-denatured casein, 1% dimethyl sulfoxide and various concentrations of the test drug was preincubated at 30° C. for 5 minutes, and 5 μg of μCANP (50 μg) (Calpain I, Nacalai Tesque Inc.) was added or starting the reaction. After incubation at 30° C. for 20 minutes, the reaction was stopped by addition of 0.5 ml of 10% trichloroacetic acid. After allowing to stand at room temperature for 60 minutes, the mixture was centrifuged at 3000×g for 5 minutes, and the absorbance at 280 nm of the supernatant was determined. The remaining activity was obtained by reducing the blank value which was obtained in a similar manner to the above but adding 10% trichloroacetic acid prior to addition of μCANP from the above value. The concentration of the test drug required for 50% inhibition (IC50) was calculated from the inhibition rate obtained using the value which was measured in a similar manner to the above but without the test drug. The IC50 value of the compound obtained in Example 5 was more than 200,000 nM.

[2] = target: T2, papain (Carica papaya, UniProt P00784); experiment: Inhibitory Activity against Papain; conditions: pH 6.8, preincubated 40° C. 3 min, incubation 10 min, read-out: concentration of the test drug required for 50% inhibition (IC50)
T2 construct: purchased Sigma Chemical Co
T2 sequence (P00784 134-345): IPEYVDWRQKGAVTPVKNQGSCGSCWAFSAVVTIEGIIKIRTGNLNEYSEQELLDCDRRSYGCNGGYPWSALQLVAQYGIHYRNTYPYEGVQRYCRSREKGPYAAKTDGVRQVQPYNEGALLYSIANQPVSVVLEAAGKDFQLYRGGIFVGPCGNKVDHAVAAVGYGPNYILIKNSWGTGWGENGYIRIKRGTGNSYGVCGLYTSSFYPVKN
Protocol: Test example 2 [Inhibitory Activity against Papain]
The activity was measured according to the method of A.J. Barrett et al [Biochem. J., vol. 201, page 189, (1982)].
To each of 0.95 ml of the reaction solutions containing 2.5 mM 2-mercaptoethanol, 1 mM disodium ethylenediaminetetraacetate, 0.1 M sodium potassium phosphate (pH 6.8), 0.1% brij-35 (Nacalai Tesque Inc.), 1% dimethyl sulfoxide and the various concentrations of the test drug was added 25 μl of 400 nM papain solution (Sigma Chemical Co.), and the mixture was preincubated for 40° C. for 3 minutes, after which 25 μof 200 μM benzyloxycarbonyl-L-phenylaranyl-L-arginine 4-methyl-coumaryl-7-amide (Peptide Institute Inc.) was added for starting the reaction. After incubation at 40° C. for 10 minutes, the reaction was stopped by addition of 1 ml of 100 mM sodium chloroacetate in 100 mM sodium acetate (pH 4.3). The fluorescence of the liberated 7-amino-4-methylcoumarine was determined using a Shimazu fluorimeter RF-5000 with excitation at 380 nm and emission measured at 440 nm. The concentration of the test drug required for 50% inhibition (IC50) was calculated from the inhibiting rate calculated using the value which was measured in a similar manner to the above but without the test drug.

[3] = tested on: cathepsin B; experiment: Inhibitory Activity against Cathepsin B; conditions: pH 6.0, preincubated 40° C. 10 min, incubation 10 min
Protocol: The activity was measured according to the method of A.J. Barrett et al [Biochem. J., vol.
To each of 0.95 ml of the reaction solutions containing 2.5 mM 2-mercaptoethanol, 1 mM disodium ethylenediaminetetraacetate, 0.1 M sodium potassium phosphate buffer (pH 6.0), 0.1% brij-35 (Nacalai Tesque Inc.), 1% dimethyl sulfoxide and different concentrations of the test drug was added 25 μl of 200 nM cathepsin B solution (Sigma Chemical Co.), and the mixture was preincubated for 40° C. for 10 minutes, after which 25 μl of 200 µM benzyloxycarbonyl L-phenylaranyl-L-arginine 4-methylcoumaryl-7-amide (Peptide Institute Inc.) was added for starting the reaction. After incubation at 40° C. for 10 minutes, the reaction was stopped by addition of 1 ml of 100 mM sodium chloroacetate in 100 mM sodium acetate (pH 4.3) The fluorescence of the liberated 7-amino-4-methylcoumarine was determined using a Shimazu fluorimeter RP-5000 with excitation at 380 n and emission measured at 440 nm. […] Chosen as a comparative drug is N-(L-3-trans-carboxy-oxirane-2-carbonyl)-L-isoleucyl-L-proline methyl ester which is included within the structural formula of the above U.K. Patent and is the closest compound to the compound of formula I in the structure.

Compound `CCOC(=O)[C@H]1O[C@@H]1C(=O)N[C@H](C(=O)N1CCC[C@H]1C(=O)O)[C@@H](C)CC` [Example 5, N-(L-3-trans-ethoxycarbonyl-oxirane-2-carbonyl)-L-isoleucyl-L-proline] has an IC50 [1] of over 200 µM, an IC50 [2] of 16 µM and an IC50 [3] of 120 nM.
`CC[C@H](C)[C@H](NC(=O)[C@H]1O[C@@H]1C(=O)O)C(=O)N1CCC[C@H]1C(=O)OC` [Reference Example, N-(L-3-trans-carboxyoxirane-2-carbonyl)-L-isoleucyl-L-proline methyl ester, reference compound] showed an IC50 [3] of 8800 nM.
